Experimental data published in article PMC5773651, “Customised in vitro model to detect human metabolism-dependent idiosyncratic drug-induced liver injury” (Archives of Toxicology, 2017).
Where two headings read alike, the source gives them in different places. Marks after values point to notes of the source that are not given here.

Tests used:
HepG2 cells [1] = experiment: Cell viability (PI), IC50, control HepG2 cells; assay type: cell-based; details: Homo sapiens; control non-transduced HepG2; 24 h; unit inferred, tested range in µM; read-out: IC50 (cell viability), C
[2] = system: HepG2 cells transduced with AdCYP2C19; experiment: Cell viability (PI), IC50, AdCYP2C19-HepG2; assay type: cell-based; details: Homo sapiens, unit inferred, tested range in µM
Procedure: (§1) For subculturing purposes, cells were detached by treatment with 0.25% trypsin/0.02% EDTA at 37 °C. For the adenovirus infection studies, cells were seeded in 96-well plates (5000 cells/well) and adenovirus-containing medium was added 48 h later. After 24 h, cells were transferred to the adenovirus-free medium and cultured for an additional 24-h period prior to the incubations performed with the test chemicals. To optimise the expression of the functional enzymes in the adenovirus-transduced HepG2 (Ad-HepG2) cells, different doses (MOI, multiplicity of infection, defined as plaque formation units per cell) of each adenovirus were tested.
(§2) The drugs included in the study were chosen based on previous information about their hepatotoxicity. Information on the potential mechanisms implicated in the toxicity of each compound and the major enzymes involved in their metabolism is summarised in Table 1. HepG2 or Ad-HepG2 (48 h post-infection) cells were exposed for 24 h to eight concentrations of the tested compounds. Each experimental condition was repeated independently three times (with three wells measured each time). The stock solutions of compounds were prepared in DMSO and were conveniently diluted in the culture medium to obtain the desired final concentrations. The final DMSO concentration in the culture medium was 0.5% (v/v), and the control cultures were treated with the same amount of solvent.
(§3) Following treatments, cells were simultaneously loaded with several fluorescent dyes to measure multiple biomarkers of cell toxicity. […] Information about the probes is summarised in Supplementary Table S2.
(§4) After incubating with dyes, cells were imaged by the Scan^R system (Olympus, Germany). Dyes were excited, and their fluorescence was monitored at the excitation and emission wavelengths at appropriate filter settings. The collected images were analysed using the Scan^R analysis module, which allows the simultaneous quantification of subcellular structures that are stained by different fluorescent probes.

[3] = system: HepG2 cells transduced with AdCYP3A4; experiment: Cell viability (PI), IC50, AdCYP3A4-HepG2; assay type: cell-based; details: Homo sapiens, unit inferred, tested range in µM
Procedure: as §1, §2, §3, §4

[4] = system: HepG2 cells transduced with AdCYP1A2; experiment: Cell viability (PI), IC50, AdCYP1A2-HepG2; assay type: cell-based; details: Homo sapiens, unit inferred, tested range in µM
Procedure: as §1, §2, §3, §4

[5] = system: HepG2 cells transduced with AdCYP3A4; experiment: HCS hepatotoxicity assay (MEC, TR), AdCYP3A4-HepG2; assay type: cell-based, human; details: 24 h; for TR: TR = 100 x Cmax/lowest MEC; for MEC Apoptosis / MEC Calcium / MEC MMP / MEC Mitochondrial superoxide / MEC ROS: unit not given, tested range in µM
[6] = system: HepG2 cells transduced with AdCYP2C19; experiment: HCS hepatotoxicity assay (MEC, TR), AdCYP2C19-HepG2; assay type: cell-based, human; details: 24 h; for TR: TR = 100 x Cmax/lowest MEC; for MEC Apoptosis / MEC Calcium / MEC MMP / MEC Mitochondrial superoxide / MEC ROS: unit inferred, tested range in µM
Procedure: as §1, §2, §3, §4

[7] = system: HepG2 cells transduced with AdCYP1A2; experiment: HCS hepatotoxicity assay (MEC, TR), AdCYP1A2-HepG2; assay type: cell-based, human; details: 24 h; for MEC Apoptosis / MEC Calcium / MEC MMP / MEC Mitochondrial superoxide / MEC ROS: unit inferred, tested range in µM; for TR: TR = 100 x Cmax/lowest MEC
Procedure: as §1, §2, §3, §4

HepG2 cells [8] = details: human, 24 h
Procedure: as §1, §2, §3, §4

[9] = ref Atienzar et al. ([2014]), Garside et al. ([2014]), Tolosa et al. ([2012b]); cited from earlier work
[10] = cited from earlier work; for Bioactivation / Enzyme: major enzyme(s) involved in the bioactivation (denoted as *) or detoxification of the drug: previous information; for Toxicity (mechanisms of toxicity): ref Ashrafian et al. [2007], Donato et al. [2009], Fromenty and Pessayre [1997], Rolo et al. [2000], Tolosa et al. [2012b]; for DILI category: ref Gustafsson et al. ([2014])
[11] = system: HepG2 cells transduced with AdCYP2D6; experiment: Cell viability (PI), IC50, AdCYP2D6-HepG2; assay type: cell-based; details: Homo sapiens, unit inferred, tested range in µM
Procedure: as §1, §2, §3, §4

[12] = system: HepG2 cells transduced with AdCYP2D6; experiment: HCS hepatotoxicity assay (MEC, TR), AdCYP2D6-HepG2; assay type: cell-based, human; details: 24 h; for TR: TR = 100 x Cmax/lowest MEC; for MEC Apoptosis / MEC Calcium / MEC Lipids / MEC MMP / MEC Mitochondrial superoxide / MEC ROS: unit inferred, tested range in µM
Procedure: as §1, §2, §3, §4

## CC(C)C(=O)Nc1ccc([N+](=O)[O-])c(C(F)(F)F)c1 [Flutamide]
HepG2 cells [1]
  IC50: 398 µM
[2]; ADV CYP2C19 x1, 24 h, read-out: IC50 (cell viability), ADV dose x1
  IC50: 344 µM
[2]; ADV CYP2C19 x4, 24 h, read-out: IC50 (cell viability), ADV dose x4
  IC50: 309 µM
[2]; ADV CYP2C19 x10, 24 h, read-out: IC50 (cell viability), ADV dose x10
  IC50: 255 µM
[3]; ADV CYP3A4 x1, 24 h, read-out: IC50 (cell viability), ADV dose x1
  IC50: 219 µM
[3]; ADV CYP3A4 x4, 24 h, read-out: IC50 (cell viability), ADV dose x4
  IC50: 176 µM
[3]; ADV CYP3A4 x10, 24 h, read-out: IC50 (cell viability), ADV dose x10
  IC50: 145 µM
[4]; ADV CYP1A2 x1, 24 h, read-out: IC50 (cell viability), ADV dose x1
  IC50: 384 µM
[4]; ADV CYP1A2 x4, 24 h, read-out: IC50 (cell viability), ADV dose x4
  IC50: 261 µM
[4]; ADV CYP1A2 x10, 24 h, read-out: IC50 (cell viability), ADV dose x10
  IC50: 248 µM
[5]; AdCYP 3A4 1x
  TR: 2.5
  MEC Apoptosis: 500
  MEC Calcium: 250
  MEC MMP: 750
  MEC Mitochondrial superoxide: 500
  MEC ROS: 250
[5]; AdCYP 3A4 4x
  TR: 5.0
  MEC Apoptosis: 250
  MEC Calcium: 250
  MEC MMP: 500
  MEC Mitochondrial superoxide: 250
  MEC ROS: 125
[5]; AdCYP 3A4 10x
  TR: 5.0
  MEC Apoptosis: 125
  MEC Calcium: 250
  MEC MMP: 250
  MEC Mitochondrial superoxide: 125
  MEC ROS: 125
[6]; AdCYP 2C19 1x
  TR: 2.5
  MEC Apoptosis: 250 µM
  MEC Calcium: 250 µM
  MEC MMP: 250 µM
  MEC Mitochondrial superoxide: 250 µM
  MEC ROS: 250 µM
[6]; AdCYP 2C19 4x
  TR: 6.2
  MEC Apoptosis: 250 µM
  MEC Calcium: 100 µM
  MEC MMP: 250 µM
  MEC Mitochondrial superoxide: 250 µM
  MEC ROS: 250 µM
[6]; AdCYP 2C19 10x
  TR: 12.4
  MEC Apoptosis: 100 µM
  MEC Calcium: 75 µM
  MEC MMP: 250 µM
  MEC Mitochondrial superoxide: 50 µM
  MEC ROS: 50 µM
[7]; AdCYP 1A2 1x
  MEC Apoptosis: 250 µM
  MEC Calcium: 500 µM
  MEC MMP: 500 µM
  MEC Mitochondrial superoxide: 75 µM
  MEC ROS: 500 µM
[7]; AdCYP 1A2 4x
  TR: 12.4
  MEC Apoptosis: 250 µM
  MEC Calcium: 500 µM
  MEC MMP: 500 µM
  MEC Mitochondrial superoxide: 50 µM
  MEC ROS: 500 µM
[7]; AdCYP 1A2 10x
  TR: 12.4
  MEC Apoptosis: 125 µM
  MEC Calcium: 50 µM
  MEC MMP: 500 µM
  MEC Mitochondrial superoxide: 50 µM
  MEC ROS: 250 µM
HepG2 cells [8]
  MEC Apoptosis: 500 µM
  MEC Calcium: 500
  MEC MMP: 500
  MEC Mitochondrial superoxide: 500
  MEC ROS: 500
  TR: 1.2
[9]
  Cmax: 6.2 µM
[10]
  Bioactivation: Yes
  Enzyme: major enzyme(s) involved in the bioactivation (denoted as *) or detoxification of the drug: CYP1A2*, CYP2C19*, CYP3A4*
  Toxicity (mechanisms of toxicity): MI, OS
  DILI category: Severe

## C1CCC(C(CC2CCCCN2)C2CCCCC2)CC1 (centres unmarked) [Perhexiline]
HepG2 cells [1]
  IC50: 22.5 µM
[11]; ADV CYP2D6 x1, 24 h, read-out: IC50 (cell viability), ADV dose x1
  IC50: 24.4 µM
[11]; ADV CYP2D6 x4, 24 h, read-out: IC50 (cell viability), ADV dose x4
  IC50: 25.5 µM
[11]; ADV CYP2D6 x10, 24 h, read-out: IC50 (cell viability), ADV dose x10
  IC50: 27.4 µM
[12]; AdCYP 2D6 1x
  TR: 17.6
  MEC Apoptosis: 22.5 µM
  MEC Calcium: 12.5 µM
  MEC Lipids: > 27.5 µM
  MEC MMP: 22.5 µM
  MEC Mitochondrial superoxide: 22.5 µM
  MEC ROS: > 27.5 µM
[12]; AdCYP 2D6 4x
  TR: 17.6
  MEC Apoptosis: 25 µM
  MEC Calcium: 12.5 µM
  MEC Lipids: > 27.5 µM
  MEC MMP: 27.5 µM
  MEC Mitochondrial superoxide: 22.5 µM
  MEC ROS: > 27.5 µM
[12]; AdCYP 2D6 10x
  TR: 17.6
  MEC Apoptosis: 25 µM
  MEC Calcium: 12.5 µM
  MEC Lipids: > 27.5 µM
  MEC MMP: > 27.5 µM
  MEC Mitochondrial superoxide: 22.5 µM
  MEC ROS: > 27.5 µM
HepG2 cells [8]
  MEC Apoptosis: 15 µM
  MEC Calcium: 10
  MEC Lipids: 10
  MEC MMP: 22.5
  MEC Mitochondrial superoxide: 10
  MEC ROS: 25
  TR: 22
[10]
  Bioactivation: No
  Enzyme: major enzyme(s) involved in the bioactivation (denoted as *) or detoxification of the drug: CYP2D6
  Toxicity (mechanisms of toxicity): MI, ST
  DILI category: Severe
